Results filed as inconclusive are left out.
Molecular target: Solute carrier family 2, facilitated glucose transporter member 1 (Homo sapiens) (UniProt P11166)
Assay: SLC2A1-mediated glucose transport in cells – cell-based, flow cytometry, glucose FRET sensor, HEK293 JumpIN TRex, wild type, dose response (AID 1794830)
Conditions: HEK293 JumpIN SLC2A1-OE

Solute carrier family 2, facilitated glucose transporter member 1 (Homo sapiens), sequence (P11166 whole entry, looked up): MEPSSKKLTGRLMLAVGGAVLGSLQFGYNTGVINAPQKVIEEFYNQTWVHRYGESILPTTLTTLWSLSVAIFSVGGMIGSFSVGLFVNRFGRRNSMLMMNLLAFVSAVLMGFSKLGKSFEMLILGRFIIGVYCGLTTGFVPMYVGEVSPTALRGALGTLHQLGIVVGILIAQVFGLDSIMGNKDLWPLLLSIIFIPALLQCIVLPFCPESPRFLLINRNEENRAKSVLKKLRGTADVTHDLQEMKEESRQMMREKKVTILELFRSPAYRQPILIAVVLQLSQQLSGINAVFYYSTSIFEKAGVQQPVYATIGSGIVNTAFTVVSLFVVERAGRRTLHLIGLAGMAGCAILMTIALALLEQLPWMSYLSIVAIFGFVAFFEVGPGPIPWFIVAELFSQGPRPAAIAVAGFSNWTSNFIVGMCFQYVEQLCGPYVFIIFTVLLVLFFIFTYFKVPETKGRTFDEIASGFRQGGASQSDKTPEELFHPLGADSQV

OC[C@H]1OC(O)[C@H](O)[C@@H](O)[C@@H]1O (stereo partly specified)
EC50 (substrate transport, FRET signal increase): 527 µM

— PubChem BioAssay AID1794830
